In patent US20140128260A1, “Compositions and Methods for Post Emergent Weed Control with Dim Herbicides and Gibberellic Acid” (Valent U.S.A. Corporation, priority 2012, published 2014):

What was measured:
[1] = system: Glyphosate resistant corn; test: Effect of clethodim and GA3 treatments on planted glyphosate resistant corn (Example 2); format: in vivo
Procedure: A further study was performed in order to confirm the effect clethodim and GA3 treatments have on corn. Glyphosate resistant corn was planted with a conventional four-row planter. Treatments were applied 28 days after the plantings.
Effect of Clethodim and GA3 Treatments on corn (% control).

[2] = system: Johnsongrass; test: Effect of clethodim and GA3 treatments on Johnsongrass, field plots (Example 1); format: in vivo, sorghum halepense
Procedure: In order to determine the efficacy of combinations of clethodim and GA3, numerous treatments were applied to plots in an area with abundant Johnsongrass growth.
The percent control of Johnsongrass plants was evaluated at 7, 18 and 28 days following the treatment. Effect of Clethodim and GA3 Treatments on Johnsongrass (% control).”
The percent control refers to the amount of dead tissue on the plants present. It would be dead plants plus desiccated foliage on partially killed plants.

Structure (SMILES)	Corn % control ([1]; 6 DAT, clethodim 32 gm ai/a, with NIS and AMS) [%]	Corn % control ([1]; 13 DAT, clethodim 32 gm ai/a, with NIS and AMS) [%]	Corn % control ([1]; 29 DAT, clethodim 32 gm ai/a, with NIS and AMS) [%]	Activity of clethodim on corn in the presence of GA3 ([1]; in vivo)	Johnsongrass % control ([2]; 7 DAT, clethodim 32 x g ai/a (9 fl oz/a of Selectmax), with 0.25% v/v NIS and 2.5 lb/acre AMS) [%]	Johnsongrass % control ([2]; 18 DAT, clethodim 32 x g ai/a (9 fl oz/a of Selectmax), with 0.25% v/v NIS and 2.5 lb/acre AMS) [%]	Johnsongrass % control ([2]; 28 DAT, clethodim 32 x g ai/a (9 fl oz/a of Selectmax), with 0.25% v/v NIS and 2.5 lb/acre AMS) [%]	Corn % control ([1]; 6 DAT, GA3 3 g ai/a, with 0.25% v/v NIS and 2.5 lb/acre AMS) [%]	Corn % control ([1]; 6 DAT, GA3 10 g ai/a, with NIS and AMS) [%]	Corn % control ([1]; 13 DAT, GA3 3 g ai/a, with NIS and AMS) [%]	Corn % control ([1]; 13 DAT, GA3 10 g ai/a, with NIS and AMS) [%]	Corn % control ([1]; 29 DAT, GA3 3 g ai/a, with NIS and AMS) [%]	Corn % control ([1]; 29 DAT, GA3 10 g ai/a, with NIS and AMS) [%]	Johnsongrass % control ([2]; 7 DAT, GA3 5 g ai/a (5 fl oz/a of ProGibb 4%)) [%]	Johnsongrass % control ([2]; 7 DAT, GA3 25 g ai/a (25 fl oz/a of ProGibb 4%)) [%]	Johnsongrass % control ([2]; 18 DAT, GA3 5 g ai/a (5 fl oz/a of ProGibb 4%)) [%]	Johnsongrass % control ([2]; 18 DAT, GA3 25 g ai/a (25 fl oz/a of ProGibb 4%)) [%]	Johnsongrass % control ([2]; 28 DAT, GA3 5 g ai/a (5 fl oz/a of ProGibb 4%)) [%]	Johnsongrass % control ([2]; 28 DAT, GA3 25 g ai/a (25 fl oz/a of ProGibb 4%)) [%]	Effect of GA3 on the activity of clethodim on Johnsongrass ([2]; seven days following treatment)
CCSC(C)CC1CC(=O)C(C(CC)=NOC/C=C/Cl)=C(O)C1 (centres unmarked) [Clethodim, 2-[1-[[[(2E)-3-chloro-2-propen-1-yl]oxy]imino]propyl]-5-[2-(ethylthio)propyl]-3-hydroxy-2-cyclohexen-1-one]	48.33	88.33	96.00	significantly increased	37.21	85.66	89.26													
C=C1C[C@]23C[C@@]1(O)CC[C@H]2[C@@]12C=C[C@H](O)[C@@](C)(C(=O)O1)[C@H]2[C@@H]3C(=O)O [GA3, Gibberellic acid]								0	0	0	0	0	0	0	0	0.32	0	0	0	more than doubles the activity of clethodim
